“Also recorded” adds a separate entry of the source. Marks after values point to notes of the source that are not given here.
Experiments:
[1] = system: non-small cell lung cancer cell line (NSCLC), 177; assay: EPT with bleomycin of NSCLC xenografts in nude mice; format: in vivo
[2] = system: poorly differentiated human pancreatic tumor (Panc-3); assay: EPT with bleomycin of Panc-3 tumors xenografted in nude mice; format: in vivo, nude mouse; conditions: for Complete Regression (100%), number of mice / Death, number of mice / No Response, number of mice / Partial Regression (≧80%), number of mice / Tumor regrowth, number of mice: of 25 mice treated; for Tumor volume (mm^3) T1: treated mouse T1; for Tumor volume (mm^3) T2: treated mouse T2
Description: The single treatment procedure involved injection of bleomycin (0.5 units in 0.15 ml saline) intratumorally, using fanning, as described herein followed by application of six square wave electrical pulses, ten minutes later, using needle array electrodes as described in the present application, arranged along the circumference of a circle 1 cm in diameter. Needle array of variable diameters (e.g., 0.5 cm, 0.75 cm and 1.5 cm can also be used to accommodate tumors of various sizes. Stoppers of various heights can be inserted at the center of the array to make the penetration depth of the needles into the tumor variable. A built-in mechanism allowed switching of electrodes for maximum coverage of the tumor by the pulsed field. The electrical parameters were: 780 V/cm center field strength and 6×99 μs pulses spaced at 1 sec interval.
The tumor cell line Panc-3, a poorly differentiated adenocarcinoma cell line of the pancreas, was supplied by AntiCancer, Inc., San Diego. For EPT experiments, tissue taken from the stock mice, where the tumor line was maintained, was thawed and cut into very small pieces about 1 mm each, and 8-10 pieces were surgically xenografted in a subcutaneous sac made in left flank of nude mice, and then closed with 6.0 surgical suture. […] The tumor dimensions were measured and the tumor volume calculated using the formula: (II/6)×a×b×c where a, b, and c a are, respectively, the length, width and thickness of the tumor. 0.5 units Bleomycin (Sigma Chemicals) was dissolved in 0.15 ml of 0.9% NaCl and was injected in each mice intratumorally by fanning for both the control (D+E−) and the treated (D+E+) groups. Ten minutes after the injection, each mouse in the D+E+ group was pulsed from a BTX T820 square wave electroporator with a set of needle array electrodes as described in the present invention. Electrical parameters used were as follows: field strength 1300 V/cm, 6 pulses of 99 μs each, at 1 sec interval.
The mice were monitored every day for mortality and any signs of a diseased state were noted. The tumor dimensions were measured at regular intervals and tumor growth regression/progression monitored.

bleomycin
EPT treatment result ([1]; bleomycin + EPT, NSCLC xenograft): very encouraging results | tumor after retreatment ([1]; recurred tumor retreated at day 27, after 7 days): no evidence of tumor | treated mice with no response ([2]; 2/25): 8% | treated mice that died ([2]; 20 days after treatment, 1/25): 4% | treated mice with partial (>80%) regression ([2]; 28 days following treatment, 5/25): 20% | treated mice with complete tumor regression ([2]; 28 days following treatment, 17/25): 68% | mice with tumor regrowth ([2]; 35 days after treatment, at a much slower rate): 8% | histology of tumor samples ([2]; D+E+ group, 35 days after the treatment): necrotic tumor cell ghosts; also recorded: severe necrosis of the tumor region | histology of samples from tumor site ([2]; after 120 days): complete absence of tumor cells | cases with no palpable tumor ([2]; after 120 days of the treatment, 16/25): 64% | necrosis and edema at the treatment site ([2]; bleomycin 0.5 units intratumoral + pulses): severe necrosis and edema in nearly all the mice | tumor volume ([2]; control group D+E− (drug, no pulsing)): increased dramatically | Complete Regression (100%), number of mice ([2]; 28 days after treatment): 17 | Death, number of mice ([2]; 28 days after treatment): 1 | No Response, number of mice ([2]; 28 days after treatment): 2 | Partial Regression (≧80%), number of mice ([2]; 28 days after treatment): 5 | Complete Regression (100%), number of mice ([2]; 35 days after treatment): 16 | No Response, number of mice ([2]; 35 days after treatment): 2 | Partial Regression (≧80%), number of mice ([2]; 35 days after treatment): 3 | Complete Regression (100%), number of mice ([2]; 57 days after treatment): 16 | Partial Regression (≧80%), number of mice ([2]; 57 days after treatment): 3 | Tumor regrowth, number of mice ([2]; 57 days after treatment): 2 | No Response, number of mice ([2]; 57 days after treatment, footnote a: mice sacrificed due to increased tumor burden): 1^a | Complete Regression (100%), number of mice ([2]; 84 days after treatment): 16 | No Response, number of mice ([2]; 84 days after treatment): 1 | Partial Regression (≧80%), number of mice ([2]; 84 days after treatment): 3 | Death, number of mice ([2]; 84 days after treatment, 1 died after treatment, 1 with no palpable tumor died after 64 days): 2^b | Complete Regression (100%), number of mice ([2]; 94 days after treatment): 16 | No Response, number of mice ([2]; 94 days after treatment): 1 | Partial Regression (≧80%), number of mice ([2]; 94 days after treatment): 3 | Tumor regrowth, number of mice ([2]; 94 days after treatment, footnote d: secondary metastatic tumor): 1^d | Complete Regression (100%), number of mice ([2]; 120 days after treatment): 16 | Partial Regression (≧80%), number of mice ([2]; 120 days after treatment, footnote e: fibrous tissue): 3^e | time monitored to be without tumors ([2]; representative animals (2/17), then euthanized): 243 days | tumor volume ([2]; treated group D+E+ (drug + electrical field)): substantial reduction in the tumor volume | detectable tumor ([2]; treated mice, after approximately 24 days): essentially no detectable tumor | Tumor volume (mm^3) T1 ([2]; 0 days after treatment): 123.110 mm^3 | Tumor volume (mm^3) T1 ([2]; 1 day after treatment): 210.950 mm^3 | Tumor volume (mm^3) T1 ([2]; 8 days after treatment): 104.550 mm^3 | Tumor volume (mm^3) T1 ([2]; 15 days after treatment): 113.210 mm^3 | Tumor volume (mm^3) T1 ([2]; 18 days after treatment): 161.730 mm^3 | Tumor volume (mm^3) T1 ([2]; 24 days after treatment): 41.560 mm^3 | Tumor volume (mm^3) T1 ([2]; 28 days after treatment): 0 mm^3 | Tumor volume (mm^3) T1 ([2]; 35 days after treatment): 0 mm^3 | Tumor volume (mm^3) T1 ([2]; 38 days after treatment): 0 mm^3 | Tumor volume (mm^3) T1 ([2]; 43 days after treatment): 0 mm^3 | Tumor volume (mm^3) T2 ([2]; 0 days after treatment): 178.370 mm^3 | Tumor volume (mm^3) T2 ([2]; 1 day after treatment): 252.720 mm^3 | Tumor volume (mm^3) T2 ([2]; 8 days after treatment): 211.110 mm^3 | Tumor volume (mm^3) T2 ([2]; 15 days after treatment): 226.966 mm^3 | Tumor volume (mm^3) T2 ([2]; 18 days after treatment): 246.910 mm^3 | Tumor volume (mm^3) T2 ([2]; 24 days after treatment): 47.223 mm^3 | Tumor volume (mm^3) T2 ([2]; 28 days after treatment): 0 mm^3 | Tumor volume (mm^3) T2 ([2]; 35 days after treatment): 0 mm^3 | Tumor volume (mm^3) T2 ([2]; 38 days after treatment): 0 mm^3 | Tumor volume (mm^3) T2 ([2]; 43 days after treatment): 0 mm^3
